Reference: patent US10758534B2 (Vertex Pharmaceuticals Incorporated, priority 2014, dated 2020)

Target: T1, F508del (Homo sapiens, UniProt P13569, DEL508-508)
T1 construct: expressed in transfected cells
Assay: Protocol 2: FRET membrane potential optical assay (VIPR), identification of correction compounds
Type: cell-based
Settings: Table 3; compounds of Table 1 as modulators of CFTR activity; protocol not stated
Method in brief: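 NIH3T3 mouse fibroblasts stably expressing F508del were treated with test compound for 16 hrs at 37° C. in serum-free medium; 27° C. incubation served as positive control. F508del was activated with 10 μM forskolin plus 20 μM genistein in Cl^−-free medium, and Cl^− efflux-driven depolarization was read by DiSBAC2(3)/CC2-DMPE FRET.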

T1 sequence (P13569 with tags, fused parts or gaps DEL508-508): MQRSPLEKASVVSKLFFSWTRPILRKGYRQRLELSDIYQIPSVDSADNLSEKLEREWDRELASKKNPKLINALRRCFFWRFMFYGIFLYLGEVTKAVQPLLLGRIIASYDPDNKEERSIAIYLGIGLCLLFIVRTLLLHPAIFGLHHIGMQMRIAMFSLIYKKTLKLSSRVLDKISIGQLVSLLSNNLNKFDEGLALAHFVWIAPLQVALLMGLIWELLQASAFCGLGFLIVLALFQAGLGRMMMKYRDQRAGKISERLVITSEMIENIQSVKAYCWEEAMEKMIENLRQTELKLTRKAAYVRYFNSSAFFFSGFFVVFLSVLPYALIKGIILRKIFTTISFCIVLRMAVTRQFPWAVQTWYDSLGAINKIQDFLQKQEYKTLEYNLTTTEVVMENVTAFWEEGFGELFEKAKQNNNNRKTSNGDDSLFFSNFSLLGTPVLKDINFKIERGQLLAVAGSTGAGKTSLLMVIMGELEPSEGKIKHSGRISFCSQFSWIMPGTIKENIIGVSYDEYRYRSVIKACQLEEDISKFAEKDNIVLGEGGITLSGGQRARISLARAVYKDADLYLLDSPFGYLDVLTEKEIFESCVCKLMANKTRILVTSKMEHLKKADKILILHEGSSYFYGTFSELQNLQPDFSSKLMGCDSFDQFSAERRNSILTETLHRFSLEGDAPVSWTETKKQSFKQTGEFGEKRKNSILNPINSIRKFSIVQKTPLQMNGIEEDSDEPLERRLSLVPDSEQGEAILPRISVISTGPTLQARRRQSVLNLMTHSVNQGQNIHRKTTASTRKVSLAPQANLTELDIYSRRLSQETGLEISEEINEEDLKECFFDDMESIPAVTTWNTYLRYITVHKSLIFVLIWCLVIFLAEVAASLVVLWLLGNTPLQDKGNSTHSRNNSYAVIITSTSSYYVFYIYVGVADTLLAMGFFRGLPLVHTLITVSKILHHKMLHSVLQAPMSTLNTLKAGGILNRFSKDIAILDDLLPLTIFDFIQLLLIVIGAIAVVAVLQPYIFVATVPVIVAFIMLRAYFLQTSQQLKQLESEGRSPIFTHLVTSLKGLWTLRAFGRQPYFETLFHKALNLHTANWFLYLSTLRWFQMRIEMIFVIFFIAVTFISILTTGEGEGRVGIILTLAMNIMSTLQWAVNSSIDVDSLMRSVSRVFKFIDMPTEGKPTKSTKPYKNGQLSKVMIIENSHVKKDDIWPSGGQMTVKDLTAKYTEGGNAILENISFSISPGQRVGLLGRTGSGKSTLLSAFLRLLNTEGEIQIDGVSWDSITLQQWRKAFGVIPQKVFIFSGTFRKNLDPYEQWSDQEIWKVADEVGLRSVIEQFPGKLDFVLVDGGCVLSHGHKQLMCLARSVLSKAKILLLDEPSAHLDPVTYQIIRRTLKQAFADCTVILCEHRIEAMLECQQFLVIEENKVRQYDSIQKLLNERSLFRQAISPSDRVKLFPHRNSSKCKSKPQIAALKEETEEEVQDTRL

Structure (SMILES) | EC30
CC(C)Oc1cc(-c2ccc(C(=O)NS(=O)(=O)c3ccn[nH]3)c(N3[C@H](C)CC[C@@H]3C)n2)ccc1Cl [Compound 701, 6-(4-chloro-3-isopropoxy-phenyl)-2-[(2S,5R)-2,5-dimethylpyrrolidin-1-yl]-N-(1H-pyrazol-5-ylsulfonyl)pyridine-3-carboxamide] | +++ (“+++” means <3 uM)
Cc1ccc(-c2nc(C(C)(C)C)ccc2C(=O)NS(=O)(=O)c2ccc(N)nc2)cc1 [Compound 702, N-[(6-amino-3-pyridyl)sulfonyl]-6-tert-butyl-2-(p-tolyl)pyridine-3-carboxamide] | ++ (“++” means between 3 uM and 10 uM)
CC(C)Oc1ccc(-c2ccc(C(=O)NS(=O)(=O)c3cccc(N)n3)c(N3CCCC4(CC4)C3)n2)cn1 [Compound 703, N-[(6-amino-2-pyridyl)sulfonyl]-2-(7-azaspiro[2.5]octan-7-yl)-6-(6-isopropoxy-3-pyridyl)pyridine-3-carboxamide] | +++ (“+++” means <3 uM)
C[C@@H]1CC[C@H](C)N1c1nc(C2CCCCC2)ccc1C(=O)NS(=O)(=O)c1cccc(N)n1 [Compound 704, N-[(6-amino-2-pyridyl)sulfonyl]-6-cyclohexyl-2-[(2S,5R)-2,5-dimethylpyrrolidin-1-yl]pyridine-3-carboxamide] | ++ (“++” means between 3 uM and 10 uM)
CC(C)COc1cc(F)cc(-c2ccc(C(=O)NS(=O)(=O)c3cccc(N)n3)c(OC3CCCOC3)n2)c1 (stereo not shown) [Compound 706, N-[(6-amino-2-pyridyl)sulfonyl]-6-(3-fluoro-5-isobutoxy-phenyl)-2-tetrahydropyran-3-yloxy-pyridine-3-carboxamide] | +++ (“+++” means <3 uM)
CC1CN(c2nc(-c3cccc(OC(C)C)n3)ccc2C(=O)NS(=O)(=O)c2cccc(N)n2)C(C)(C)C1 (stereo not shown) [Compound 708, N-[(6-amino-2-pyridyl)sulfonyl]-6-(6-isopropoxy-2-pyridyl)-2-(2,2,4-trimethylpyrrolidin-1-yl)pyridine-3-carboxamide] | +++ (“+++” means <3 uM)
CC(C)COc1cccc(-c2ccc(C(=O)NS(=O)(=O)c3ccn[nH]3)c(N3[C@H](C)CC[C@@H]3C)n2)c1 [Compound 710, 2-[(2S,5R)-2,5-dimethylpyrrolidin-1-yl]-6-(3-isobutoxyphenyl)-N-(1H-pyrazol-5-ylsulfonyl)pyridine-3-carboxamide] | +++ (“+++” means <3 uM)
CC(C)COc1cc(F)cc(-c2ccc(C(=O)NS(=O)(=O)c3cccc(N)n3)c(N3C(C)CC(c4ccccc4)C3C)n2)c1 (stereo not shown) [Compound 711, N-[(6-amino-2-pyridyl)sulfonyl]-2-(2,5-dimethyl-3-phenyl-pyrrolidin-1-yl)-6-(3-fluoro-5-isobutoxy-phenyl)pyridine-3-carboxamide] | +++ (“+++” means <3 uM)
CC1CN(c2nc(-c3ccc(F)cc3)ccc2C(=O)NS(=O)(=O)c2cccc(N)n2)C(C)(C)C1 (stereo not shown) [Compound 712, N-[(6-amino-2-pyridyl)sulfonyl]-6-(4-fluorophenyl)-2-(2,2,4-trimethylpyrrolidin-1-yl)pyridine-3-carboxamide] | +++ (“+++” means <3 uM)
Cc1cc(C)c(Oc2nc3c(cc2C(=O)NS(=O)(=O)c2cccc(N)n2)COCC3(C)C)c(C)c1 [Compound 714, N-[(6-amino-2-pyridyl)sulfonyl]-8,8-dimethyl-2-(2,4,6-trimethylphenoxy)-5,7-dihydropyrano[4,3-b]pyridine-3-carboxamide] | +++ (“+++” means <3 uM)
CC(C)COc1cc(F)cc(-c2ccc(C(=O)NS(=O)(=O)c3ccn[nH]3)c(N3CCC[C@H]3c3ccccc3)n2)c1 [Compound 716, 6-(3-fluoro-5-isobutoxy-phenyl)-2-[(2S)-2-phenylpyrrolidin-1-yl]-N-(1H-pyrazol-5-ylsulfonyl)pyridine-3-carboxamide] | +++ (“+++” means <3 uM)
CC(C)C(C)Oc1cccc(-c2ccc(C(=O)NS(=O)(=O)c3cccc(N)n3)c(N3CCCC3(C)C)n2)n1 (stereo not shown) [Compound 717, N-[(6-amino-2-pyridyl)sulfonyl]-6-[6-(1,2-dimethylpropoxy)-2-pyridyl]-2-(2,2-dimethylpyrrolidin-1-yl)pyridine-3-carboxamide] | +++ (“+++” means <3 uM)
COC[C@@H]1CCCN1c1nc(-c2cc(F)cc(OCC(C)C)c2)ccc1C(=O)NS(=O)(=O)c1cccc(N)n1 [Compound 719, N-[(6-amino-2-pyridyl)sulfonyl]-6-(3-fluoro-5-isobutoxy-phenyl)-2-[(2S)-2-(methoxymethyl)pyrrolidin-1-yl]pyridine-3-carboxamide] | +++ (“+++” means <3 uM)
CC(C)COc1cc(F)cc(-c2ccc(C(=O)NS(=O)(=O)c3cccc(N)n3)c(N3CCC(C)C3C)n2)c1 (stereo not shown) [Compound 720, N-[(6-amino-2-pyridyl)sulfonyl]-2-(2,3-dimethylpyrrolidin-1-yl)-6-(3-fluoro-5-isobutoxy-phenyl)pyridine-3-carboxamide] | +++ (“+++” means <3 uM)
CC(C)COc1ccc(F)c(-c2ccc(C(=O)NS(=O)(=O)c3ccc[nH]c3=O)c(N3[C@H](C)CC[C@@H]3C)n2)c1 [Compound 721, 2-[(2S,5R)-2,5-dimethylpyrrolidin-1-yl]-6-(2-fluoro-5-isobutoxy-phenyl)-N-[(2-oxo-1H-pyridin-3-yl)sulfonyl]pyridine-3-carboxamide] | ++ (“++” means between 3 uM and 10 uM)
Cc1ccc(-c2nc(-c3cc(F)cc(OC(C)C)c3)ccc2C(=O)NS(=O)(=O)c2cccc(N)n2)cc1 [Compound 722, N-[(6-amino-2-pyridyl)sulfonyl]-6-(3-fluoro-5-isopropoxy-phenyl)-2-(p-tolyl)pyridine-3-carboxamide] | + (“+” means greater than 10 uM)
COC(=O)C(C)Oc1ccc(-c2ccc(C(=O)NS(=O)(=O)c3cccc(N)n3)c(N3[C@H](C)CC[C@@H]3C)n2)cn1 (stereo partly drawn) [Compound 723, methyl 2-[[5-[5-[(6-amino-2-pyridyl)sulfonylcarbamoyl]-6-[(2S,5R)-2,5-dimethylpyrrolidin-1-yl]-2-pyridyl]-2-pyridyl]oxy]propanoate] | ++ (“++” means between 3 uM and 10 uM)
CC(C)Oc1ccc(-c2ccc(C(=O)NS(=O)(=O)c3cccc(N)n3)c(N3CCCC3C(C)C)n2)cn1 (stereo not shown) [Compound 724, N-[(6-amino-2-pyridyl)sulfonyl]-6-(6-isopropoxy-3-pyridyl)-2-(2-isopropylpyrrolidin-1-yl)pyridine-3-carboxamide] | +++ (“+++” means <3 uM)
COc1ccc(-c2ccc(C(=O)NS(=O)(=O)c3cccc(N)n3)c(N3[C@H](C)CC[C@@H]3C)n2)cn1 [Compound 726, N-[(6-amino-2-pyridyl)sulfonyl]-2-[(2S,5R)-2,5-dimethylpyrrolidin-1-yl]-6-(6-methoxy-3-pyridyl)pyridine-3-carboxamide] | ++ (“++” means between 3 uM and 10 uM)

Now from value to compound:

EC30 | Structure (SMILES)
+++ (“+++” means <3 uM) | Cc1cc(C)c(Oc2nc(-c3cccnc3OCC(F)(F)F)ccc2C(=O)NS(=O)(=O)c2cccc(N)n2)c(C)c1 [Compound 697, N-[(6-amino-2-pyridyl)sulfonyl]-6-[2-(2,2,2-trifluoroethoxy)-3-pyridyl]-2-(2,4,6-trimethylphenoxy)pyridine-3-carboxamide]
+++ (“+++” means <3 uM) | CC1CCN(c2nc(-c3cc(F)cc(OC(C)C)c3)ccc2C(=O)NS(=O)(=O)c2nccnc2N)CC1 [Compound 699, N-(3-aminopyrazin-2-yl)sulfonyl-6-(3-fluoro-5-isopropoxy-phenyl)-2-(4-methyl-1-piperidyl)pyridine-3-carboxamide]
+++ (“+++” means <3 uM) | COc1ccc(F)cc1-c1ccc(C(=O)NS(=O)(=O)c2cccc(N)n2)c(Oc2c(C)cc(C)cc2C)n1 [Compound 700, N-[(6-amino-2-pyridyl)sulfonyl]-6-(5-fluoro-2-methoxy-phenyl)-2-(2,4,6-trimethylphenoxy)pyridine-3-carboxamide]
+++ (“+++” means <3 uM) | COc1ncc(-c2ccc(C(=O)NS(=O)(=O)c3cccc(N)n3)c(Oc3c(C)cc(C)cc3C)n2)cc1C [Compound 705, N-[(6-amino-2-pyridyl)sulfonyl]-6-(6-methoxy-5-methyl-3-pyridyl)-2-(2,4,6-trimethylphenoxy)pyridine-3-carboxamide]
+ (“+” means greater than 10 uM) | Cc1ccc(-c2nc3c(cc2C(=O)NS(=O)(=O)c2nccnc2N)CCCC3(C)C)cc1 [Compound 707, N-(3-aminopyrazin-2-yl)sulfonyl-8,8-dimethyl-2-(p-tolyl)-6,7-dihydro-5H-quinoline-3-carboxamide]
+++ (“+++” means <3 uM) | Cc1cc(C)c(Oc2nc(-c3cccc(C(F)(F)F)c3)ccc2C(=O)NS(=O)(=O)c2cccc(N)n2)c(C)c1 [Compound 709, N-[(6-amino-2-pyridyl)sulfonyl]-6-[13-(trifluoromethyl)phenyl]-2-(2,4,6-trimethylphenoxy)pyridine-3-carboxamide]
++ (“++” means between 3 uM and 10 uM) | Cc1ccc(Oc2nc(-c3cnn(CC(C)C)c3)ccc2C(=O)NS(=O)(=O)c2nccnc2N)c(C)c1 [Compound 713, N-(3-aminopyrazin-2-yl)sulfonyl-2-(2,4-dimethylphenoxy)-6-(1-isobutylpyrazol-4-yl)pyridine-3-carboxamide]
+++ (“+++” means <3 uM) | CCOc1ncccc1-c1ccc(C(=O)NS(=O)(=O)c2cccc(N)n2)c(Oc2c(C)cc(C)cc2C)n1 [Compound 718, N-[(6-amino-2-pyridyl)sulfonyl]-6-(2-ethoxy-3-pyridyl)-2-(2,4,6-trimethylphenoxy)pyridine-3-carboxamide]
+++ (“+++” means <3 uM) | Cc1cc(C)c(Oc2nc(-c3ccc(F)c(F)c3)ccc2C(=O)NS(=O)(=O)c2cccc(N)n2)c(C)c1 [Compound 725, N-[(6-amino-2-pyridyl)sulfonyl]-6-(3,4-difluorophenyl)-2-(2,4,6-trimethylphenoxy)pyridine-3-carboxamide]
